Patent US20070287719A1, “Salts, Prodrugs and Formulations of 1-[5-(4-Amino-7-Isopropyl-7H-Pyrrolo[2,3-D]Pyrimidine-5-Carbonyl)-2-Methoxy-Phenyl]-3-(2,4-Dichloro-Phenyl)-Urea” (Pfizer Inc, priority 2005, published 2007)
Blank lines part the entries; values can stand above or below the compound they belong to.

Key:
[1] = In vitro dissolution test in Model Fasted Duodenal (MFD) solution; assay type: physicochemical; settings: 1.8 mL MFD; 0.36 mg free base active agent or 1.44 mg active agent in spray dry dispersion
Protocol: The compositions comprising the active agent and concentration-enhancing polymer provide enhanced concentration of the dissolved inhibitor in in vitro dissolution tests. It has been determined that enhanced drug concentration in in vitro dissolution tests in Model Fasted Duodenal (MFD) solution or Phosphate Buffered Saline (PBS) is a good indicator of in vivo performance and bioavailability. An appropriate PBS solution is an aqueous solution comprising 20 mM sodium phosphate (Na2HPO4), 47 mM potassium phosphate (KH2PO4), 87 mM sodium chloride (NaCl), and 0.2 mM potassium chloride (KCl), adjusted to pH 6.5 with sodium hydroxide (NaOH). An appropriate MFD solution is the same PBS solution wherein additionally is present 7.3 mM sodium taurocholic acid and 1.4 mM of 1-palmitoyl-2-oleyl-sn-glycero-3-phosphocholine. In particular, a composition of the present invention can be dissolution-tested by adding it to MFD or PBS solution and agitating to promote dissolution. […]
The concentration of dissolved inhibitor is typically measured as a function of time by sampling the test medium and plotting inhibitor concentration in the test medium vs. time so that the MDC can be ascertained. The MDC is taken to be the maximum value of dissolved inhibitor measured over the duration of the test. […]

[2] = Plasma pharmacokinetics after oral dosing, rat; assay type: in vivo; settings: Rat (n = 4), 100 mg Active Agent/kg
Protocol: (§1) Alternatively, the compositions of the present invention, when dosed orally to a human or other mammal, provide an AUC inhibitor concentration in the blood (herein referred to as a plasma AUC) that is at least about 4 fold that observed when a control composition comprising all equivalent quantity of undispersed drug is dosed. It is noted that such compositions can also be said to have a relative bioavailability of about 4. Preferably, the compositions of the present invention, when dosed orally to a human or other mammal, provide an AUC inhibitor concentration in the blood that is at least about 6 fold, more preferably at least about 10 fold, and even more preferably at least about 20 fold that observed when a control composition comprising an equivalent quantity of undispersed drug is dosed. […] An exemplary dosing vehicle would be a suspension solution of water containing 0.5 wt percent […] (such as METHOCEL) and 0.16 wt percent of the surfactant polyoxyethylene 20 sorbitan monooleate (such as TWEEN 80). Thus, the compositions of the present invention can be evaluated in either in vitro or in vivo tests, or both. […]
(§2) Relative bioavailability of inhibitor in the dispersions of the present invention can be tested in vivo in animals or humans using conventional methods for making such a determination. […] In an in vivo crossover study a “test composition” of inhibitor and polymer is dosed to half a group of test subjects and, after an appropriate washout period (e.g., one week) the same subjects are dosed with a “control composition” that comprises an equivalent quantity of inhibitor as the “test composition” (but with no polymer present). […] The relative bioavailability is measured as the concentration in the blood (serum or plasma) versus time area under the curve (AUC) determined for the test group divided by the AUC in the blood provided by the control composition. Preferably, this test/control ratio is determined for each subject, and then the ratios are averaged over all subjects in the study. […]

[3] = Plasma pharmacokinetics after oral dosing, dog; assay type: in vivo; settings: Dog (n = 3), 30 mg Active Agent/kg
Protocol: as §1, §2

[4] = molecular target: T1, fully activated recombinant GST-TIE2 construct (Homo sapiens, UniProt Q02763); test: Tie-2 tyrosine kinase inhibition, GST-Tie-2 fusion protein, PGT plate ELISA; assay type: biochemical
T1 construct: made in house; host or cells: insect cells (baculovirus)
Protocol: (§3) The crystalline and non-crystalline forms and formulations of 1-[5-(4-Amino-7-isopropyl-7H-pyrrolo[2,3-d[pyrimidine-5-carbonyl)-2-methoxy-phenyl]-3-(2 4-dichloro-phenyl)-urea are selective inhibitors of the tyrosine kinases, Tie-2, TrkA and related family member TrkB. The potentcy of these forms and formulations of the present invention at the tyrosine kinases may be determined using the following assays.
Inhibition of Tie-2 tyrosine kinase activity is measured in 96-well Maxisorp plates (Nunc) coated with poly-Glu-Tyr (PGT 4:1 Sigma) by the addition of 100 μL/well of a 25 μg/mL solution of PGT in PBS. Plates are incubated at 37° C. overnight, and transferred to 4° C. until use. Prior to compound testing, appropriate dilutions of compounds are made in 96-well polypropylene plates. […] GST-Tie-2 would be previously isolated from insect cells infected with GST-Tie-2 baculoviruses, and used at concentrations determined to provide OD450 signals of approximately 1.0 in the presence of ATP and the absence of chemical inhibitors. […] The bound HRP-PY20 antibody can be detected by the addition of 70 μL/well TMB microwell substrate (KPL), and color development terminated by the addition of an equal volume of 0.9 M H2SO4. The background signal from wells lacking ATP can be subtracted from all ATP-stimulated wells, and IC50 values calculated.

[5] = molecular target: inactive (unphosphorylated) TIE2 kinase (Homo sapiens, UniProt Q02763); test: Inhibition of inactive TIE2 kinase; assay type: biochemical
From the text: as §3

[6] = molecular target: T2, recombinant human erbB-TIE2 chimeric receptor overexpressed in C6 rat glioma cells (Homo sapiens, UniProt Q02763); test: Cell-based TIE-2 kinase activity of chimeric receptor
T2 construct: erbB extracellular domain with TIE2 intracellular domain; extracellular domain of human EGFR (erbB); expressed in transfected cells; host or cells: C6 rat glioma cells

[7] = Hygroscopicity of salt forms; assay type: physicochemical; settings: at 90 percent relative humidity at ambient temperature

Sequence of inactive (unphosphorylated) TIE2 kinase (Q02763 23-1124): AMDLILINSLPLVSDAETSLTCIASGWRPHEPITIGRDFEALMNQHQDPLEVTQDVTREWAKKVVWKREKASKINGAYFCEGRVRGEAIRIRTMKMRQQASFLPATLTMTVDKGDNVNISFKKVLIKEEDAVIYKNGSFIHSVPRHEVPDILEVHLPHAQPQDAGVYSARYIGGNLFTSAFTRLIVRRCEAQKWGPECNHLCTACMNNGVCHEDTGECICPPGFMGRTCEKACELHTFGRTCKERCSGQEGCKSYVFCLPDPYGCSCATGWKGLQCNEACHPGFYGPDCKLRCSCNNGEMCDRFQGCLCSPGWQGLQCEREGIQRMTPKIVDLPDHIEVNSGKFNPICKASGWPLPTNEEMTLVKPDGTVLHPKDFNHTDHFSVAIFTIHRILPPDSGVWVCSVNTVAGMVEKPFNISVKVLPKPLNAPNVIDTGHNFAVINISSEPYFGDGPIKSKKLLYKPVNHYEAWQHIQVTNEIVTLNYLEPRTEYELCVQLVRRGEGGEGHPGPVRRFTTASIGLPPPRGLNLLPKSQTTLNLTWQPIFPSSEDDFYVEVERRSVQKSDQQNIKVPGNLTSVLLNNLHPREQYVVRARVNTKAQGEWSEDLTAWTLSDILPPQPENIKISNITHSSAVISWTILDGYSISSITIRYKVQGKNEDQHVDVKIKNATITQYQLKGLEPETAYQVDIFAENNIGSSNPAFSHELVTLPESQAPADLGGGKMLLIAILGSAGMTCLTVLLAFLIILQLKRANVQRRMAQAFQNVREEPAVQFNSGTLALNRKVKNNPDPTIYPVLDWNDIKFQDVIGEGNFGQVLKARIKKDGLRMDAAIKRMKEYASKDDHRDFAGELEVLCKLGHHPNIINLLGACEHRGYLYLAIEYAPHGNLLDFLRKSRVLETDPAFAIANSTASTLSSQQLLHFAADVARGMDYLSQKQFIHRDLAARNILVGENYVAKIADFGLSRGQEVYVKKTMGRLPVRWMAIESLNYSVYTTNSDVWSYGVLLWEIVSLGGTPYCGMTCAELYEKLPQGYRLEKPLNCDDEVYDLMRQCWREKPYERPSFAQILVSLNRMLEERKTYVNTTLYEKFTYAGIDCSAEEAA
T1 sequence (Q02763 23-1124): as above
T2 sequence (Q02763 770-1124 limits assumed, change not shown): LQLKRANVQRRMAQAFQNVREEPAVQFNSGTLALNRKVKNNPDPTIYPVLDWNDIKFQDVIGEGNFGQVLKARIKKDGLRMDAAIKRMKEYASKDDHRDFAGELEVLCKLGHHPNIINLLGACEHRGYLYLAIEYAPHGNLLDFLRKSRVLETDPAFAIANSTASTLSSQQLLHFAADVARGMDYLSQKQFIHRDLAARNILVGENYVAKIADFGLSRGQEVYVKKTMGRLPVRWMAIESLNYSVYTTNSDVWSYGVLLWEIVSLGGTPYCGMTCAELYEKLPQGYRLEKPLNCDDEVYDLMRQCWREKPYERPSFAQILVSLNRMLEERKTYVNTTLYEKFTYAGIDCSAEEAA

Structure (SMILES): COc1ccc(C(=O)c2cn(C(C)C)c3ncnc(N)c23)cc1NC(=O)Nc1ccc(Cl)cc1Cl.O=P(O)(O)O [Example 1, 1-[5-(4-Amino-7-isopropyl-7H-pyrrolo[2,3-d]pyrimidine-5-carbonyl)-2-methoxy-phenyl]-3-(2,4-dichloro-phenyl)-urea•Phosphate]
Hygroscopicity [7]: 0.8 percent (by weight)

Structure (SMILES): COc1ccc(C(=O)c2cn(C(C)C)c3ncnc(N)c23)cc1NC(=O)Nc1ccc(Cl)cc1Cl.O=S(=O)(O)c1ccccc1 [Example 8, 1-[5-(4-Amino-7-isopropyl-7H-pyrrolo[2,3-d]pyrimidine-5-carbonyl)-2-methoxy-phenyl]-3-(2,4-dichloro-phenyl)-urea•Besylate]
Hygroscopicity [7]: 2.0 percent (by weight)

Structure (SMILES): COc1ccc(C(=O)c2cn(C(C)C)c3ncnc(N)c23)cc1NC(=O)Nc1ccc(Cl)cc1Cl.Cc1ccc(S(=O)(=O)O)cc1 [Example 9, 1-[5-(4-Amino-7-isopropyl-7H-pyrrolo[2,3-d]pyrimidine-5-carbonyl)-2-methoxy-phenyl]-3-(2,4-dichloro-phenyl)-urea•Tosylate]
Hygroscopicity [7]: 1.1 percent (by weight)

The remaining lines, values ahead:

AUC (aqueous concentration versus time) [1]: 100 µg·min/mL
MDC (Maximum Drug Concentration) [1]: 3 µg/mL
Cmax [2]: 0.191 ± 0.153 µg/mL
Tmax [2]: 4.5 ± 1 h
AUC(0-t) ([2]; read-out: AUC0-24): 1.3 ± 0.94 µg·h/mL
Cmax [3]: 0.347 ± 0.556 µg/mL
Tmax [3]: 4 ± 2 h
AUC(0-t) ([3]; read-out: AUC0-24): 2.81 ± 4.55 µg·h/mL
IC50 [4]: 0.28 µM
Ki [5]: 0.023 µM
IC50 [6]: 0.00467 µM
Structure (SMILES): COc1ccc(C(=O)c2cn(C(C)C)c3ncnc(N)c23)cc1NC(=O)Nc1ccc(Cl)cc1Cl [1-[5-(4-amino-7-isopropyl-7H-pyrrolo[2,3-d]pyrimidine-5-carbonyl)-2-methoxy-phenyl]-3-(2,4-dichloro-phenyl)-urea]

Hygroscopicity [7]: 7.9 percent (by weight)
Structure (SMILES): COc1ccc(C(=O)c2cn(C(C)C)c3ncnc(N)c23)cc1NC(=O)Nc1ccc(Cl)cc1Cl.CS(=O)(=O)O [Example 2, 1-[5-(4-Amino-7-isopropyl-7H-pyrrolo[2,3-d]pyrimidine-5-carbonyl)-2-methoxy-phenyl]-3-(2,4-dichloro-phenyl)-urea•Mesylate (Form B)]

Hygroscopicity [7]: 1.6 percent (by weight)
Structure (SMILES): COc1ccc(C(=O)c2cn(C(C)C)c3ncnc(N)c23)cc1NC(=O)Nc1ccc(Cl)cc1Cl.CS(=O)(=O)O [Example 3, 1-[5-(4-Amino-7-isopropyl-7H-pyrrolo[2,3-d]pyrimidine-5-carbonyl)-2-methoxy-phenyl]-3-(2,4-dichloro-phenyl)-urea•Mesylate (Polymorph A)]
